According to patent publication US9458120B2, “Phenoxypropanol derivative and pharmaceutical composition including the same” (KOREA INSTITUTE OF SCIENCE AND TECHNOLOGY, priority 2011, dated 2016):

How the values were obtained:
TREK-1 channel = biological target: T1, TREK-1 channel (Rattus norvegicus, UniProt Q920B6); test: Assay for TREK channel inhibition activity (whole cell patch clamp recording, COS7 cell transfected with GFP-rTREK-1); type: cell-based; settings: COS7 cells, GFP-rTREK-1, whole-cell patch clamp; for inhibition at 101 µM: COS-7, Table 3 (value ± spread), 101 μM [sic], read-out: block % at 101 μM; for inhibition at 10 µM: COS-7, Table 2, read-out: block % at 10 μM
T1 construct: expressed in transfected cells; host or cells: COS7 (Korean Cell Line Bank), transient transfection with Effectene
T1 sequence (Q920B6 1-426): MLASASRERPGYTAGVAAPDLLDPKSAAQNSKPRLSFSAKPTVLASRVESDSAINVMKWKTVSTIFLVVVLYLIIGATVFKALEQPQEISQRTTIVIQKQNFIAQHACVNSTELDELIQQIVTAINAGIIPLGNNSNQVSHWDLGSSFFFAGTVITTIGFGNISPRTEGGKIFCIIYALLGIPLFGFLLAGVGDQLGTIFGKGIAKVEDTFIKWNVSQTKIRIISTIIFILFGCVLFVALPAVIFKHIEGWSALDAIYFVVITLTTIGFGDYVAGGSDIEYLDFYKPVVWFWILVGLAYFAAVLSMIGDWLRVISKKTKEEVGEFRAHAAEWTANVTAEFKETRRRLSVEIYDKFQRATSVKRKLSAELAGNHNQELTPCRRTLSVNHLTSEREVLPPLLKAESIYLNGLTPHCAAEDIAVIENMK
Method: The inhibition activity of the compound of the present invention against TREK-1 channel was measured by measuring the physiological activity by whole cell patch clamp recording.
COS7 cell (obtained from Korean Cell Line Bank (KCLB)) was transfected with GFP-rTREK-1 gene (accession number: AY727922) using an Effectene transfection reagent (Qiagen), and cultured for 24 hours in an incubator at 37° C. As a culture medium, Dulbecco's modified Eagle's medium (DMEM, GIBCO products from Invitrogen) containing 10% by weight of fetal bovine serum (FBS) and 1% by weight of penicillin/streptomycin (5000 unit/ml) was used. The cells thus prepared were adhered on a cover glass, which was placed on a chamber, and then a recording solution (150 mM NaCl, 10 mM HEPES, 10 mM KCl, 2 mM CaCl2, 5.5 mM D-Glucose, all reagents were purchased from Sigma) was applied. A glass microelectrode was filled with an intracellular solution prepared with the composition of 150 mM KCl, 5 mM EGTA, 10 mM HEPES, 0.5 mM CaCl2, 1 mM MgCl2, 4 mM Mg-ATP, and 0.3 mM Na-GTP (all reagents were purchased from Sigma), followed by whole-cell patch clamp recording. The voltage was fixed at −70 mV using a Digidata 1322A data acquisition system (Molecular Devices) and an Axopatch 200A amplifier (Axon Instruments), and the current generated by applying a voltage ramp from −100 mV to +100 mV for 1 second was measured using a Clampex9.2 program. A difference between the current values measured at +100 mV and −100 mV was defined as a current in the above experiment. The currents before and after blocker treatment were measured so as to determine the inhibition activity.
Block %=100−(current after blocker treatment/current before blocker treatment)*100

[1] = biological target: α1G T-type calcium channel (Homo sapiens, UniProt O43497); test: Assay for T-type calcium channel inhibition activity (FDSS6000 calcium imaging, KCl activation); type: cell-based; settings: 75 s pre-treatment then KCl 75 mM, HEK293 cells expressing α1G T-type calcium channel and Kir2.1
Method: At 12-24 hours before the assay for T-type calcium channel activity, cells of HEK293 cell line (α1G cell line: KCTC 10519BP, GenBank, Korea Research Institute of Bioscience and Biotechnology) which stably express α1G T-type calcium channel and Kir2.1, were sub-cultured in a poly-L-lysine (0.05 mg/ml) treated 96-well plate with the density of 4×10^4 per a well using a 96-well cell dispenser (Titertek). On the day of assay, the 96-well plate to which the cells were attached were washed three times with a HEPES buffer solution (unit mM: 150 NaCl, 5 KCl, 1 MgCl2, 2 CaCl2, 10 HEPES, 10 glucose, pH 7.4) using a 96-well plate automatic washing device (Bio Tek), and then reacted with a HEPES buffer solution containing 5 μM fluo-3/AM and 0.001% (w/v) Pluronic F-127 at room temperature for 1 hour, to label with fluorescent dye, and then further washed twice with the HEPES buffer solution. Thereafter, at 10 minutes before the measurement using a FDSS6000 device, a washing with a HEPES buffer solution containing 10 mM CaCl2 was conducted once more, and the final volume was adjusted to 81 μl. Besides the above 96-well plate containing the cells, additional two 96-well drug plates were provided, in which the 96-well plates contained KCl (final concentration: 75 mM) for activating T-type calcium channel and a blocker drug, respectively.
Since most of cell-based HTS (High throughput screening) devices are equipped with a liquid application system for drug injection, but have no liquid sucking system, the blocker drug to be tested and KCl were respectively provided at the five-times higher concentration in 10 mM CaCl2 HEPES buffer solution at the amount of 27 μl, diluted five-times at the final cell plate volume of 135 μl, and then used in this test. In this Experimental Example, therefore, FDSS6000 (Hamamatsu Photonics) was used as an alternative to HTS device.
Specific FDSS6000 measurement conditions are as follows: After recording the reference value of 20 seconds, the change of intracellular calcium concentration which induced by pre-treatment of the drug (the prepared […]) for 75 seconds followed by administration of KCl was measured, in which the percentage (%) inhibition effect of the test drug was determined, through estimating the area of ratio value of 340/380 in the control without treatment of the test drug as 100%. As a reference drug, 10 μM of mibefradil was always used.
For accurate calcium-imagination, the light sources of 4 xenon lamps in FDSS6000 were radiated to make the cells exposed selectively to the excitation wavelength (340 nm and 380 nm) by computer-controlled filter wheel. Data was obtained at interval of each 1.23 second. The emitter fluorescence light inflow through a 515 nm long-pass filter was obtained as an average 340/380 ratio value for each well in the 96-wells by a cooled CCD camera and digital fluorescence analyzer in the device. All image data and analysis were obtained by using a FDSS6000-exclusive program provided by Hamamatsu Photonics, as described above.

Chain of α1G T-type calcium channel (O43497 whole entry): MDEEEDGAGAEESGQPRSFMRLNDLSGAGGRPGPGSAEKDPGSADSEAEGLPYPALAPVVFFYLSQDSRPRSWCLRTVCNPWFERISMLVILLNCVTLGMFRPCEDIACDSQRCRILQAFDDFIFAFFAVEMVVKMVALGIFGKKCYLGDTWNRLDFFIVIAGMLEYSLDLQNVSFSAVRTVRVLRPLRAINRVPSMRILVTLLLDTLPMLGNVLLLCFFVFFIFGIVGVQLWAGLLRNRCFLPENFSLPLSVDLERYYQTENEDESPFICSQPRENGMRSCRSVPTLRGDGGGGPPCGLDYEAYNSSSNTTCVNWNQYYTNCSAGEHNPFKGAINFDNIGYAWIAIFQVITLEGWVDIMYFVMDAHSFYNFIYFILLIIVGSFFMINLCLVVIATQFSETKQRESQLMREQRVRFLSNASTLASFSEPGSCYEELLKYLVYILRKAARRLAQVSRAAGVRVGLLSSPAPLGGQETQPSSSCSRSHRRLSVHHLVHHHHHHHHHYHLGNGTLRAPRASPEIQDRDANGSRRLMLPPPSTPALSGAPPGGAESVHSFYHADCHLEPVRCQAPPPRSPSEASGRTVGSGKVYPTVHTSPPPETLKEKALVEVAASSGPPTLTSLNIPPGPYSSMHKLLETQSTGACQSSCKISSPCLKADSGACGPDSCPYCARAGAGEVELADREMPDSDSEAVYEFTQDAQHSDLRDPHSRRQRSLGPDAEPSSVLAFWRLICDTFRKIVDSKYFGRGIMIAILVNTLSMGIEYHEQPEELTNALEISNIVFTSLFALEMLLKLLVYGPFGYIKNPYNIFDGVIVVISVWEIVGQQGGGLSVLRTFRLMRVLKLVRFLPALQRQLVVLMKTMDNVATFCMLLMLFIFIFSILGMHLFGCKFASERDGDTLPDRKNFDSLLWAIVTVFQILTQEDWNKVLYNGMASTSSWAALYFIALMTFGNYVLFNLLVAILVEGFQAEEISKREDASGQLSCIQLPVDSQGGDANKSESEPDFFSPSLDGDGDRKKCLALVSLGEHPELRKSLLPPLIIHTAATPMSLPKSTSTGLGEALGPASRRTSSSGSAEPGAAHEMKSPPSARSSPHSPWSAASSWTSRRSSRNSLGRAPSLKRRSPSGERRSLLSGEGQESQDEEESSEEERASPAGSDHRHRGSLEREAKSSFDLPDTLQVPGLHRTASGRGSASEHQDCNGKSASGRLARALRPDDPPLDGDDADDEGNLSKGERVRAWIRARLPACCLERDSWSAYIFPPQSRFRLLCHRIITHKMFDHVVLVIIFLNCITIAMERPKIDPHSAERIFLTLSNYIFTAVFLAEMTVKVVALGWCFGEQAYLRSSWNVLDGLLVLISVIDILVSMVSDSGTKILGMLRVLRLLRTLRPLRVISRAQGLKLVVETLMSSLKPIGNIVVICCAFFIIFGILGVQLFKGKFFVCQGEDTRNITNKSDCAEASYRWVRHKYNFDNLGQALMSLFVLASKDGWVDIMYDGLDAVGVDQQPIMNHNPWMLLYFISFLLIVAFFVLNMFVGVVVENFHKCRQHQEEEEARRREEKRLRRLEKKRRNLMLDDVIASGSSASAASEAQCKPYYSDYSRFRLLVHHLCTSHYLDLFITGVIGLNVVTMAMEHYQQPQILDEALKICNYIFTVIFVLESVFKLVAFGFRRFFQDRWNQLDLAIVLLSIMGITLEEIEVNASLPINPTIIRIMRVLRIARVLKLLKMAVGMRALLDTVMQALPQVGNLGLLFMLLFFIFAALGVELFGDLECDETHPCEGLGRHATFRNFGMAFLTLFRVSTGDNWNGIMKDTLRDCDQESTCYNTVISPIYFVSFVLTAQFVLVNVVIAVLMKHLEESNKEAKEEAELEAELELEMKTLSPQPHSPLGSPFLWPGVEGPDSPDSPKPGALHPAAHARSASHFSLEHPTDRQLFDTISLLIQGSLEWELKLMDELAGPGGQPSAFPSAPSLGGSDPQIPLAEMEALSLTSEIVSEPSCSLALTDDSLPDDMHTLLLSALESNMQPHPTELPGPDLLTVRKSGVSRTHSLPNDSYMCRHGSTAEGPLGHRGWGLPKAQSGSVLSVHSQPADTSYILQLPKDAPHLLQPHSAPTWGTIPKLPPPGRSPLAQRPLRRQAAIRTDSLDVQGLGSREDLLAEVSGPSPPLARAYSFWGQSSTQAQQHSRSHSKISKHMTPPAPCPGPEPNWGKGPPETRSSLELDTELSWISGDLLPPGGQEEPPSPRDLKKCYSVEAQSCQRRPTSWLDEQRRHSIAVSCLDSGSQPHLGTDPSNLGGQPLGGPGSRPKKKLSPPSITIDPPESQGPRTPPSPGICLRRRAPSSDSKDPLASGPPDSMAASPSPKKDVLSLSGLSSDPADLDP

| SMILES | inhibition at 101 µM (TREK-1 channel) | inhibition [1] | inhibition at 10 µM (TREK-1 channel) | block % at 100 μM (TREK-1 channel; Table 2) | block % at 100 μM (TREK-1 channel; Table 3 (value ± spread)) |
| --- | --- | --- | --- | --- | --- |
| O[C@@H](COc1ccc(C(F)(F)F)cc1)CN1CCC(O)(c2ccccc2)CC1 [KKRE10186, (R)-1-(2-hydroxy-3-(4-(trifluoromethyl)phenoxy)propyl)-4-phenylpiperidin-4-ol] | 54 ± 12.1% | 46.1% |  |  |  |
| Cc1ccccc1-n1nc(CNC(=O)CN2CCN(C[C@H](O)COc3ccc(C(F)(F)F)cc3)CC2)cc1CC(C)C [KKRE10222, (S)-2-(4-(2-Hydroxy-3-(4-(trifluoromethyl)phenoxy)propyl)piperazin-1-yl)-N-((5-isobutyl-1-o-tolyl-1H-pyrazol-3-yl)methyl)acetamide] | 51.2 ± 12.5% | 79.2% |  |  |  |
| CC(C)Cc1cc(CNC(=O)CN2CCN(C[C@@H](O)COc3ccc(C(F)(F)F)cc3)CC2)nn1-c1cc(Cl)cc(Cl)c1 [KKRE10218, (R)-N-((1-(3,5-dichlorophenyl)-5-isobutyl-1H-pyrazol-3-yl)methyl)-2-(4-(2-hydroxy-3-(4-(trifluoromethyl)phenoxy)propyl)piperazin-1-yl)acetamide] | 76.1 ± 5.79% | 73.5% |  |  |  |
| CC(C)Cc1cc(CNC(=O)CN2CCN(C[C@@H](O)COc3ccc(F)cc3)CC2)nn1-c1ccccc1 [KKRE10213, (R)-2-(4-(3-(4-Fluorophenoxy)-2-hydroxypropyl)piperazin-1-yl)-N-((5-isobutyl-1-phenyl-1H-pyrazol-3-yl)methyl)acetamide] |  | 77.4% | 64.7% |  |  |
| Cc1ccccc1-n1nc(CNC(=O)CN2CCN(C[C@H](O)COc3ccc(F)cc3)CC2)cc1CC(C)C [KKRE10227, (S)-2-(4-(3-(4-Fluorophenoxy)-2-hydroxypropyl)piperazin-1-yl)-N-((5-isobutyl-1-o-tolyl-1H-pyrazol-3-yl)methyl)acetamide] | 69.8 ± 4.78% | 74.7% |  |  |  |
| O[C@H](COc1ccc(F)cc1)CN1CCC(N2CCOCC2)CC1 [KKRE10157, (S)-1-(4-fluorophenoxy)-3-(4-morpholinopiperidin-1-yl)propan-2-ol] | 29.6 ± 3.71% | 9.33% |  |  |  |
| O=C(CN1CCN(C[C@H](O)COc2ccc(C(F)(F)F)cc2)CC1)NC1CCCCC1 [KKRE10175, (S)-N-cyclohexyl-2-(4-(2-hydroxy-3-(4-(trifluoromethyl)phenoxy)propyl)piperazin-1-yl)acetamide] | 18.1 ± 6.92% | 43.1% | 18.1% | 74.61% | 74.61 ± 2.15% |
| O[C@H](COc1ccc(C(F)(F)F)cc1)CN1CCC(N2CCCCC2)CC1 [KKRE10188, (S)-1-(1,4′-bipiperidin-1′-yl)-3-(4-(trifluoromethyl)phenoxy)propan-2-ol] | 55.6 ± 0.23% | 5.73% |  |  |  |
| O[C@@H](COc1ccc(F)cc1)CN1CCC(N2CCCCC2)CC1 [KKRE10158, (R)-1-(1,4′-bipiperidin-1′-yl)-3-(4-fluorophenoxy)propan-2-ol] | 16.8 ± 2.73% | 6.65% |  |  |  |
| O[C@@H](COc1ccc(C(F)(F)F)cc1)CN1CCC(F)(F)CC1 [KKRE10185, (R)-1-(4,4-difluoropiperidin-1-yl)-3-(4-(trifluoromethyl)phenoxy)propan-2-ol] | 60.8 ± 7.47% | 14.8% |  |  |  |

The next lines start with the values.

| inhibition at 101 µM (TREK-1 channel) | inhibition [1] | inhibition at 10 µM (TREK-1 channel) | block % at 100 μM (TREK-1 channel; Table 2) | block % at 100 μM (TREK-1 channel; Table 3 (value ± spread)) | SMILES |
| --- | --- | --- | --- | --- | --- |
| 8.28 ± 3.49% | -0.06% |  |  |  | O[C@H](COc1ccc(F)cc1)CN1CCC(N2CCCC2)CC1 [KKRE10161, (S)-1-(4-fluorophenoxy)-3-(4-(pyrrolidin-1-yl)piperidin-1-yl)propan-2-ol] |
| 63.2 ± 7.6% | 53.6% | 63.2% |  |  | O=C(CN1CCN(C[C@H](O)COc2ccc(C(F)(F)F)cc2)CC1)NCc1ccc(C(F)(F)F)cc1 [KKRE10173, (S)-2-(4-(2-hydroxy-3-(4-(trifluoromethyl)phenoxy)propyl)piperazin-1-yl)-N-(4-(trifluoromethyl)benzyl)acetamide] |
| 77.5 ± 5.19% | 67% |  | 91.23% | 91.22 ± 1.77% | CC(C)Cc1cc(CNC(=O)CN2CCN(C[C@@H](O)COc3ccc(C(F)(F)F)cc3)CC2)nn1-c1ccccc1 [KKRE10210, (R)-2-(4-(2-Hydroxy-3-(4-(trifluoromethyl)phenoxy)propyl)piperazin-1-yl)-N-((5-isobutyl-1-phenyl-1H-pyrazol-3-yl)methyl)acetamide] |
| 45.1 ± 3.6% | 77.8% |  |  |  | Cc1ccc(F)cc1-n1nc(CNC(=O)CN2CCN(C[C@@H](O)COc3ccc(F)cc3)CC2)cc1CC(C)C [KKRE10224, (R)-N-((1-(5-Fluoro-2-methylphenyl)-5-isobutyl-1H-pyrazol-3-yl)methyl)-2-(4-(3-(4-fluorophenoxy)-2-hydroxypropyl)piperazin-1-yl)acetamide] |
| 23.3 ± 10% | 17.3% |  |  |  | O[C@H](COc1ccc(F)cc1)CN1CCC(F)(F)CC1 [KKRE10180, (S)-1-(4,4-difluoropiperidin-1-yl)-3-(4-fluorophenoxy)propan-2-ol] |
| 55.3 ± 6.53% | 79% |  |  |  | CC(C)c1cc(CNC(=O)CN2CCN(C[C@@H](O)COc3ccc(C(F)(F)F)cc3)CC2)nn1-c1ccccc1 [KKRE10211, (R)-2-(4-(2-hydroxy-3-(4-(trifluoromethyl)phenoxy)propyl)piperazin-1-yl)-N-((5-isopropyl-1-phenyl-1H-pyrazol-3-yl)methyl)acetamide] |
| 52.1 ± 7.24% | 46.9% | 52.1% |  |  | O[C@@H](COc1ccc(C(F)(F)F)cc1)CN1CCN(Cc2nccn2Cc2ccccc2)CC1 [KKRE10153, (R)-1-(4-((1-benzyl-1H-imidazol-2-yl)methyl)piperazin-1-yl)-3-(4-(trifluoromethyl)phenoxy)propan-2-ol] |
| 36.4 ± 7.38% | 12% |  |  |  | O[C@@H](COc1ccc(C(F)(F)F)cc1)CN1CCC(N2CCCCC2)CC1 [KKRE10183, (R)-1-(1,4′-bipiperidin-1′-yl)-3-(4-(trifluoromethyl)phenoxy)propan-2-ol] |
